Assay results from patent publication US20050192314A1, “Urea derivatives as C-kit modulators” (Ambit Biosciences Corporation, priority 2003, published 2005).

Biological target: T1, KIT(JMminus) (Homo sapiens, UniProt P10721)
T1 construct: KIT(JMminus); made in house
Assay: Binding constant (Kd) measurement, phage-displayed kinase competition binding assay: KIT(JMminus)
Text: (§1) The term “ND” represents non-determined values.

T1 sequence (P10721 589-937 limits assumed): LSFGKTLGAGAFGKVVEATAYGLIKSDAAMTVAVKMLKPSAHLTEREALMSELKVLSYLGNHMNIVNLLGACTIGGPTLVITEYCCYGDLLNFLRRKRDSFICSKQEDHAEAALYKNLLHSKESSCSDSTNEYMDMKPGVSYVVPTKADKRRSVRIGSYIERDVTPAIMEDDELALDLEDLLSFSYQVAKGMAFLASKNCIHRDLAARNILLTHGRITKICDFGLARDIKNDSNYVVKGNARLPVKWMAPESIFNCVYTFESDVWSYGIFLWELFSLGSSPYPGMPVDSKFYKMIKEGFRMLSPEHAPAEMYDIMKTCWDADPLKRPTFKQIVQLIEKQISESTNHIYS

Kd [nM]	Structure (SMILES)
1000 to 10000	CC(C)(C)c1cc(NC(=O)Nc2ccc(NC(=O)c3cc(O)c4cccc(O)c4n3)cc2)no1 [Compound N176]
< 100	CC(C)(C)c1cc(NC(=O)Nc2ccc([N+](=O)[O-])cc2)no1 [Compound A21]
< 100	COc1cc(OC)nc(Nc2cccc(C(=O)Nc3ccc(NC(=O)Nc4cc(C(C)(C)C)on4)cc3)c2)n1 [Compound N49]
< 100	CC(C)(C)c1cc(NC(=O)Nc2ccc(NC(=O)c3csc(Cc4cccc(C(F)(F)F)c4)n3)cc2)no1 [Compound N180]
< 100	CC(=O)c1ccc(N2CCC(C(=O)Nc3ccc(NC(=O)Nc4cc(C(C)(C)C)on4)cc3)CC2)cc1 [Compound N65]
100 to 1000	Cn1nc(C(F)(F)F)c2cc(C(=O)Nc3ccc(NC(=O)Nc4cc(C(C)(C)C)on4)cc3)sc21 [Compound N64]
< 100	CC(C)(C)c1cc(NC(=O)Nc2ccc(NC(=O)c3nn(-c4cccc(C(F)(F)F)c4)c(=O)cc3O)cc2)no1 [Compound N185]
100 to 1000	CC(C)(C)c1cc(NC(=O)Nc2ccc(NC(=O)c3cc4cc(F)cc(S(C)(=O)=O)c4[nH]3)cc2)no1 [Compound N58]
< 100	CC(C)(C)c1cc(NC(=O)Nc2ccc(NC(=O)c3cc(N4CCOCC4)nc(N4CCOCC4)c3)cc2)no1 [Compound N54]
< 100	CC(C)(C)c1cc(NC(=O)Nc2ccc(NC(=O)Cc3sc(-c4ccc(Cl)cc4)nc3-c3ccccc3)cc2)no1 [Compound N66]
< 100	CN(C)c1ccc(C(=O)Nc2ccc(NC(=O)Nc3cc(C(C)(C)C)on3)cc2)cn1 [Compound N159]
1000 to 10000	CC(C)(C)c1cc(NC(=O)Nc2ccc(NC(=O)c3ccccc3O)cc2)no1 [Compound N69]
< 100	CC(C)(C)c1cc(NC(=O)Nc2ccc(NC(=O)c3nocc3C(C)(C)C)cc2)no1 [Compound N82]
< 100	Cc1cc(NC(=O)[C@](C)(O)CSc2ccc(F)cc2)ccc1NC(=O)Nc1cc(C(C)(C)C)on1 [Compound N170]
< 100	CC(C)(C)c1cc(NC(=O)Nc2ccc(NC(=O)CNCC(=O)Nc3ccccc3)cc2)no1 [Compound N72]
< 100	Cc1cnc(C(=O)Nc2ccc(NC(=O)Nc3cc(C(C)(C)C)on3)cc2)c(C(=O)O)n1 [Compound N160]
< 100	CC(=O)c1c[nH]c(C(=O)Cc2ccc(NC(=O)Nc3cc(C(C)(C)C)on3)cc2)c1 [Compound N43]
< 100	COc1cc(NC(=O)c2cn3nc(Cl)ccc3n2)ccc1NC(=O)Nc1cc(C(C)(C)C)on1 [Compound N171]
< 100	CC(C)(C)c1cc(NC(=O)Nc2ccc(Nc3nc(N)nc4[nH]cnc34)cc2)no1 [Compound O6]
< 100	COc1cc(OC)nc(N(C)c2cccc(C(=O)Nc3ccc(NC(=O)Nc4ccon4)cc3)c2)n1 [Compound N53]
< 100	CC(C)(C)c1cc(NC(=O)Nc2ccc(NC(=O)c3cn4c(n3)sc3ccccc34)cc2)no1 [Compound N73]
1000 to 10000	COc1ccc(NC(=O)Nc2cc(C(C)(C)C)on2)cc1OC [Compound A55]
< 100	COc1cc(OC)nc(Sc2ccccc2C(=O)Nc2ccc(NC(=O)Nc3cc(C(C)(C)C)on3)cc2)n1 [Compound N47]
< 100	CC(C)(C)c1cc(NC(=O)Nc2ccc(NC(=O)Cc3noc4ccccc34)cc2)no1 [Compound N80]
100 to 1000	CC(C)c1cc(NC(=O)Nc2ccc(NC(=O)C3CCN(c4ncc(C(F)(F)F)cc4Cl)CC3)cc2)no1 [Compound N59]
< 100	CC(C)(C)c1cc(NC(=O)Nc2ccc(NC(=O)c3nnsc3Sc3ccc(C(F)(F)F)cc3)cc2)no1 [Compound N179]
100 to 1000	COc1ccc(C(=O)c2c[nH]c(C(=O)Nc3ccc(NC(=O)Nc4cc(C(C)(C)C)on4)cc3)c2)cc1 [Compound N177]
< 100	CCOC(=O)c1cccc(C(=O)Nc2ccc(NC(=O)Nc3cc(C(C)(C)C)on3)cc2)n1 [Compound N164]
< 100	CC(C)(C)c1cc(NC(=O)Nc2ccc(NC(=O)c3nccc4ccccc34)cc2)no1 [Compound N117]

Biological target: T2, KIT(DKIN) (Homo sapiens, UniProt P10721)
T2 construct: KIT(DKIN); made in house
Assay: Binding constant (Kd) measurement, phage-displayed kinase competition binding assay: KIT(DKIN)
Text: as §1

T2 sequence (P10721 589-937 limits assumed): as above

Kd [nM]	Structure (SMILES)
100 to 1000	CC(C)(C)c1cc(NC(=O)Nc2ccc(NC(=O)c3cnnc4ccccc34)cc2)no1 [Compound N147]
1000 to 10000	CC(C)(C)c1cc(NC(=O)Nc2ccc(OCCN3CCOCC3)cc2)no1 [Compound G40]
1000 to 10000	CC(C)(C)c1cc(NC(=O)Nc2ccc(N)cc2)no1 [Compound C1, 1-(5-tert-butylisoxazol-3-yl)-3-(4-aminophenyl)urea]
100 to 1000	CC(C)(C)c1cc(NC(=O)Nc2ccc(OCc3ccccc3C(F)(F)F)cc2)no1 [Compound G4]
100 to 1000	COc1cc(NC(=O)Nc2cc(C(C)(C)C)no2)cc(OC)c1OC [Compound A49]
100 to 1000	CC(C)(C)c1cc(NC(=O)Nc2ccc(NC(=O)CCc3ccccc3)cc2)no1 [Compound N96]
100 to 1000	Cc1nccn1CCOc1ccc(NC(=O)Nc2cc(C(C)(C)C)on2)cc1 [Compound G51]
> 10000	CC1CCCN(CCOc2ccc(NC(=O)Nc3cc(C(C)(C)C)on3)cc2)C1 (stereo not shown) [Compound G44]
100 to 1000	Cc1ccncc1C(=O)Nc1ccc(NC(=O)Nc2cc(C(C)(C)C)on2)cc1 [Compound N104]
100 to 1000	CSc1ccc(NC(=O)Nc2cc(C(C)(C)C)no2)cc1 [Compound A39]
100 to 1000	CC(C)(C)c1cc(NC(=O)Nc2ccc(OCc3ccccc3)cc2)on1 [Compound G30]
100 to 1000	CC(C)(C)c1cc(NC(=O)Nc2ccc(Cl)cc2)no1 [Compound A27]
1000 to 10000	CC(C)(C)c1cc(NC(=O)Nc2ccc(OCc3ccccc3-c3ccccc3)cc2)no1 [Compound G8]
100 to 1000	CC(C)(C)c1cc(NC(=O)Nc2ccc(NC(=O)Cc3ccccc3)cc2)no1 [Compound N35]
1000 to 10000	CC(C)(C)c1cc(NC(=O)Nc2ccc(C(=O)Nc3ccc(Cl)cc3)cc2)no1 [Compound N156]
100 to 1000	Cc1ccc(COc2ccc(NC(=O)Nc3cc(C(C)(C)C)on3)cc2)cc1 [Compound G15]
100 to 1000	CC(C)(C)c1cc(NC(=O)Nc2ccc(OCc3ccc(F)cc3Cl)cc2)no1 [Compound G18]
1000 to 10000	COc1ccc(-c2noc(-c3ccc(NC(=O)Nc4cc(C(C)(C)C)on4)cc3)n2)c2ccccc12 [Compound P3]
1000 to 10000	CC(C)(C)c1cc(NC(=O)Nc2ccc(NC(=O)c3c(F)cccc3C(F)(F)F)cc2)no1 [Compound N95]
1000 to 10000	CC(C)(C)c1cc(NC(=O)Nc2ccc(NC(=O)CC(N)c3ccccc3Cl)cc2)no1 (stereo not shown) [Compound N44]
> 10000	Cc1nc(C(=O)Nc2ccc(NC(=O)Nc3cc(C(C)(C)C)on3)cc2)nn1-c1cc(Cl)cc(Cl)c1 [Compound N15]
1000 to 10000	CC(C)(C)c1cc(NC(=O)Nc2ccc3cc4ccccc4cc3c2)no1 [Compound A18]
< 100	CC(C)(C)c1cc(NC(=O)Nc2ccc(NC(=O)c3cn4cc(Cl)ccc4n3)cc2)no1 [Compound N3]
100 to 1000	CC(C)(C)c1cc(NC(=O)Nc2ccc(NC(=O)c3ccnc4ccccc34)cc2)no1 [Compound N141]
100 to 1000	CC(C)(C)c1cc(NC(=O)Nc2ccc(NC(=O)c3cc4cc(Br)ccc4s3)cc2)no1 [Compound N17]

Kd [nM]	Structure (SMILES)
< 100	CC(C)(C)c1cc(NC(=O)Nc2ccc(NC(=O)c3ncc[nH]3)cc2)no1 [Compound N13]
1000 to 10000	CC(C)(C)c1cc(NC(=O)Nc2ccncc2)no1 [Compound A53]
1000 to 10000	CN(Cc1cccc([N+](=O)[O-])c1)C(=O)Nc1cc(C(C)(C)C)on1 [Compound J3]
1000 to 10000	CC(C)(C)c1cc(NC(=O)Nc2ccc(OCCN3CCOCC3)c3ccccc23)no1 [Compound K1]
100 to 1000	CNC(=O)c1ccc(NC(=O)Nc2cc(C(C)(C)C)on2)cc1 [Compound N85]
100 to 1000	CC(C)(C)c1cc(NC(=O)Nc2ccc(OC/C=C/c3ccccc3Cl)cc2)no1 [Compound G26]
100 to 1000	CC(C)(C)c1cc(NC(=O)Nc2ccc(OCCc3ccc(F)cc3)cc2)no1 [Compound G24]
100 to 1000	CC(C)(C)c1cc(NC(=O)Nc2ccc(-c3ccccc3)cc2)no1 [Compound A23]
100 to 1000	CC(C)(C)c1cc(NC(=O)Nc2ccc(OCc3ccc4ccccc4c3)cc2)no1 [Compound G3]
100 to 1000	CC(C)(C)c1cc(NC(=O)Nc2ccc(OCc3c(Cl)cccc3Cl)cc2)no1 [Compound G19]
1000 to 10000	CC(C)(C)c1cc(NC(=O)Nc2ccc(NC(=O)c3ccc(Cl)nc3)cc2)no1 [Compound N125]
100 to 1000	CC(C)(C)c1cc(NC(=O)Nc2ccc(NC(=O)c3csnn3)cc2)no1 [Compound N14]
> 10000	CC(C)(C)c1cc(NC(=O)Nc2ccc(OCCN3CCNCC3)cc2)no1 [Compound G52]
< 100	C=CCOc1ccc(NC(=O)Nc2cc(C(C)(C)C)no2)cc1 [Compound G32]
100 to 1000	Cn1nc(C(C)(C)C)cc1NC(=O)Nc1ccc(OCc2ccccc2)cc1 [Compound H2]
< 100	CC(C)(C)c1cc(NC(=O)Nc2ccc(OCc3ccc(Cl)cc3)cc2)no1 [Compound G34]
100 to 1000	CC(C)(C)c1cc(NC(=O)Nc2ccc(NC(=O)c3cc(Cl)cc(Cl)c3)cc2)no1 [Compound N29]
100 to 1000	CC(C)(C)c1cc(NC(=O)Nc2ccc(C(=O)NCc3ccccc3)cc2)no1 [Compound N89]
1000 to 10000	CC(C)(C)c1cc(NC(=O)Nc2ccc(NC(=O)Cc3csc4ccccc34)cc2)no1 [Compound N107]
< 100	CCOc1ccc(NC(=O)Nc2cc(C(C)(C)C)on2)cc1 [Compound G20]
1000 to 10000	C/C=C/C(=O)Nc1ccc(NC(=O)Nc2cc(C(C)(C)C)on2)cc1 [Compound N93]
1000 to 10000	CC(C)(C)c1cc(NC(=O)Nc2ccc(NC(=O)c3c(F)cccc3F)cc2)no1 [Compound N37]
1000 to 10000	C=C/C(=C\C=C\Cl)NC(=O)Nc1ccc(C(=O)OCCOC)cc1 [Compound Z54]
100 to 1000	CC(C)(C)c1cc(NC(=O)Nc2ccc(C(=O)Nc3ccc(OCC4CCC4)cc3)cc2)no1 [Compound N100]
1000 to 10000	CC(C)(C)c1cc(NC(=O)Nc2ccc(NS(=O)(=O)c3ccccc3)cc2)no1 [Compound V1]
